According to patent US20240199572A1, “COMPOUNDS, COMPOSITIONS, AND METHODS FOR TREATING TYPE 2 DIABETES AND DEMENTIA” (THE BOARD OF TRUSTEES OF THE UNIVERSITY OF ILLINOIS, priority 2021, published 2024):

Legend:
CD1 mice = assay: CD1 mice, three daily p.o. treatments, LXR agonist adverse effects; assay type: in vivo, mouse; conditions: 10 mg/kg p.o., three days
Excerpt: Neutrophil Counts. […] After final dose, blood samples were run on an Advia 120 analyzer (Bayer) for neutrophil counts.

E3/4FAD mice = assay: E3/4FAD (EFAD) mice treated with CL3-3; assay type: in vivo, mouse
Procedure: A longer-term study was conducted in EFAD mice, which express the same five human AD mutations as 5×FAD mice and have also undergone targeted replacement of the mouse Apoe gene with one of the human APOE alleles: ε2, ε3, or ε4. In this study, EFAD mice with heterozygous ε3/ε4 alleles (E3/4FAD) were treated from 4 months of age until 6 months of age with CL3-3 (100 mg/kg/day in hydrogel replacement of drinking water) or vehicle.
Multiple readouts of AD-related pathology were conducted with subsets of these mice. Brain regions were first analyzed via ELISA for levels of soluble, oligomeric Aβ (oAβ), which is hypothesized to be the toxic form of amyloid that underlies downstream pathology and clinical presentation associated with AD. In E3/4FAD mice, oAβ levels decreased in the hippocampus in male mice and in the cerebral cortex in female mice. Treatment with CL3-3 also was synaptoprotective in cerebral cortex regions, particularly in male mice. Expression of synaptic proteins drebrin and PSD95 were increased in male E3/4FAD mice treated with CL3-3, as determined by western blot analysis.
The remaining subset of brain hemispheres from the treated E3/4FAD mice were fixed and analyzed by staining with thioflavin S (Thio-S). Thio-S is a fluorescent dye that binds to abnormally folded protein aggregates (i.e., amyloid).

ABCA1 [1] = assay: ABCA1-linked luciferase assay in HepG2 cells; assay type: cell-based; conditions: Homo sapiens; HepG2 liver cells; Example 2, compounds active in ABCA1-Luc assay; read-out: EC50 in HepG2 liver cells
Procedure: Luciferase. HepG2 cells (RRID:CVCL 0027) purchased from ATCC and used without further validation were stably transfected with pGreenFire1-LXRE-in-ABCA1 plasmid, which contains the ABCA1 promoter sequence linked to a luciferase response element, then selected over multiple generations with puromycin and frozen in liquid N2. For assays, transfected cells were plated 24 hours in medium (Gibco) containing charcoal-stripped serum (Gemini), followed by a 24-hour treatment. Cells were lysed with passive lysis buffer (Promega), frozen at −80° C. for 15 minutes, and shaken at room temperature for 2 hours before quantification with luciferase assay system (Promega) on a Synergy Neo2 plate reader.

ABCA1 mRNA = ABCA1 mRNA - HepG2 (qRT-PCR); assay type: cell-based, human; conditions: Homo sapiens; ABCA1 mRNA-HepG2 assay (Table 7)
Excerpt: qRT-PCR. For cell samples, treated cells were lysed with RLT plus lysis buffer (Qiagen). RNA was isolated with Qiagen RNEASY® Plus columns per manufacturer instructions, then reverse-transcribed to cDNA using […]® III Reverse Transcriptase (200 U/μL, Invitrogen) per supplier protocol. qPCR experiments were either performed with TAQMAN® gene expression master mix (Invitrogen) on a StepOne™ qPCR instrument or with […]® SYBR® Green SuperMix (Quanta Biosciences) on CFX Connect™ Real-Time PCR Detection System (BioRad), with fold-change quantified by ΔΔCt. For animal samples, 100 mg tissue was homogenized in 1 mL acid-guanidinium-phenol based reagent sold under the tradename TRIZOL® (Ambion), mixed vigorously in chloroform, and separated by centrifugation. Aqueous layer containing RNA was added to Qiagen RNEASY® Plus column; remaining stops were as described above for cell lysates.

ABCA1 [2] = assay: ABCA1 firefly reporter assay in CCF-001 cells; assay type: cell-based; conditions: ABCA1 firefly reporter assay in CCF-001 cells (Table 8)
5×FAD mice = 5×FAD mice treated with CL3-3; assay type: in vivo, mouse; conditions: female 5×FAD mice, 10 mg/kg PO daily, 10 days
Procedure: To evaluate preclinical efficacy, CL3-3 was studied in 5×FAD mice. […] Female 5×FAD mice (JAX) at 16 weeks of age were treated for 10 days with either CL3-3 (10 mg/kg PO gavage daily) or vehicle. Upon completion of treatment, mouse whole brain hemispheres were analyzed for mRNA expression levels of pro-inflammatory markers including CCL2, CCL3, CCL5 CXCL10, IL-6, COX2 and NOS2. Plasma from the same mice was analyzed.

LXRβ = molecular target: T1, LXRβ (Homo sapiens, UniProt P55055); assay: LanthaScreen TR-FRET coactivator assay LXRβ; assay type: biochemical
T1 construct: purchased Thermo Fisher Scientific
T1 sequence (P55055 212-460 limits assumed): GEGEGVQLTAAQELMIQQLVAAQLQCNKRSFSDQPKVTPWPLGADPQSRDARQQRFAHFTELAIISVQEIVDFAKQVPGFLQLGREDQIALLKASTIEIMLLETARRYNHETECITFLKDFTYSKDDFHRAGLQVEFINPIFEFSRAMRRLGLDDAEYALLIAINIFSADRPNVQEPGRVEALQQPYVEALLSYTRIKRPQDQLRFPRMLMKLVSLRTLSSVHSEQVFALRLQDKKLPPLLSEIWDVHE

PPARγ = molecular target: T2, PPARγ (Homo sapiens, UniProt P37231); assay: LanthaScreen TR-FRET coactivator assay PPARγ (antagonism of pioglitazone); assay type: biochemical
T2 construct: purchased Thermo Fisher Scientific
T2 sequence (P37231 232-505 limits assumed): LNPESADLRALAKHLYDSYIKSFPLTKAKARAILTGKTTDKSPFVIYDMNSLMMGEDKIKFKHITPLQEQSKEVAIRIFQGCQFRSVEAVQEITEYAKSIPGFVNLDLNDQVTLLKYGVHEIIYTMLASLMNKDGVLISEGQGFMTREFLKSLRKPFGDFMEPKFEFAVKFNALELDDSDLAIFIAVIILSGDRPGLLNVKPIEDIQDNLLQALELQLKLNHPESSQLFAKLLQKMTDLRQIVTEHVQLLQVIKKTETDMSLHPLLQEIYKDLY
Procedure: TR-FRET Receptor Binding Assays. LanthaScreen” TR-FRET coactivator assay kits for LXRβ (Thermo Fisher Scientific) and PPARγ (Thermo Fisher Scientific) were performed according to manufacturer instructions using low-binding black 384-well plates and Synergy Neo2 plate reader. For the PPARγ assay, standardization was first performed with control agonist (pioglitazone), then run in two antagonist assays: dose-response of pioglitazone with or without a single concentration of CL2-57, and dose-response of CL2-57 cotreated with a single concentration (500 nM) of pioglitazone. Each compound dose was performed in quadruplicate on each plate, and each experiment was performed in triplicate.

[3] = tested on: Nuclear hormone (NHR) receptors; assay: All β-gal nuclear hormone receptor (NHR) screens; assay type: cell-based
Procedure: Receptor Binding Assays. Nuclear hormone (NHR) assays were performed by DiscoverX (Fremont, CA) on their NHR-Scan platform of cell-based protein-protein interaction assays. This platform uses a […] reporter that activates upon interaction of full-length receptor protein with steroid coactivator receptor peptides. In agonist mode, activity of CL2-57 at 10 μM was compared to maximal activity of published positive control agonists; in antagonist mode, reduction in activity with 10 μM CL2-57 from that observed at […] of published agonists was quantified.

EC50 (ABCA1 mRNA) [nM] | EC50 (ABCA1 [2]) [nM] | Structure (SMILES) | further results
– | – | O=S(=O)(c1ccccc1)N(CC(F)(F)F)c1ccc(C(O)(C(F)(F)F)C(F)(F)F)cc1 [Compound T0901317, reference compound] | Circulating neutrophil levels (CD1 mice): reduced; Plasma TG (CD1 mice): increased
300 | 99 | CCOC(=O)c1cc(Cl)cc(NC(=O)c2sc(Cl)cc2S(=O)(=O)N(C)c2ccc(OCC)c(OC)c2)c1 [CL3-3, Ethyl 3-chloro-5-(5-chloro-3-(N-(4-ethoxy-3-methoxyphenyl)-N-methylsulfamoyl)thiophene-2-carboxamido) benzoate] | % area stained by Thio-S (E3/4FAD mice; all measured brain regions, males and females): decreased; Expression of synaptic proteins drebrin and PSD95 (E3/4FAD mice; male E3/4FAD mice, western blot): increased; EC50 (ABCA1 [1]): 300 nM; Brain mRNA levels of inflammatory markers (CCL2, CCL3, CCL5, CXCL10, IL-6, COX2, NOS2) (5×FAD mice): reduced; Circulating TG levels (5×FAD mice): not significantly altered
420 | 66 | CCOc1ccc(N(C)S(=O)(=O)c2cc(Cl)sc2C(=O)Nc2cc(Cl)cc(C(=O)OCCOC)c2)cc1OC [CL3-11, 2-Methoxyethyl 3-chloro-5-(5-chloro-3-(N-(4-ethoxy-3-methoxyphenyl)-N-methylsulfamoyl)thiophene-2-carboxamido)benzoate] | –
– | – | CCOc1ccc(N(C)S(=O)(=O)c2cc(Cl)sc2C(=O)Nc2cccc(C(=O)O)c2)cc1OCC [CL2-129, 3-(5-Chloro-3-(N-(3,4-diethoxyphenyl)-N-methylsulfamoyl)thiophene-2-carboxamido)benzoic acid] | Activity in LXRβ TR-FRET binding assay (LXRβ): inactive; Activity in PPARγ TR-FRET binding assay (PPARγ): inactive; Activity in all of the β-gal screens [3]: inactive
1100 | 190 | CCOC(=O)c1cccc(NC(=O)c2sc(Cl)cc2S(=O)(=O)N(C)c2ccc(OCC)c(OC)c2)c1 [CL2-85, Ethyl 3-(5-chloro-3-(N-(4-ethoxy-3-methoxyphenyl)-N-methylsulfamoyl)thiophene-2-carboxamido)benzoate] | –
3300 | 1490 | CCOc1ccc(N(C)S(=O)(=O)c2cc(Cl)sc2C(=O)Nc2cccc(C(=O)OC)c2)cc1 [KB7-123, Methyl 3-(5-chloro-3-(N-(4-ethoxyphenyl)-N-methylsulfamoyl)thiophene-2-carboxamido)benzoate] | –
> 5000 | 3970 | CCOc1ccc(N(C)S(=O)(=O)c2ccsc2C(=O)Nc2cccc(C(=O)OC)c2)cc1 [CL1-87, Methyl 3-(3-(N-(4-ethoxyphenyl)-N-methylsulfamoyl)thiophene-2-carboxamido) benzoate] | –
5000 | 2190 | CCOc1ccc(N(C)S(=O)(=O)c2cc(Cl)sc2C(=O)Nc2cccc(C(=O)OCCOC)c2)cc1OCC [CL2-167, 2-Methoxyethyl 3-(5-chloro-3-(N-(3,4-diethoxyphenyl)-N-methylsulfamoyl)thiophene-2-carboxamido) benzoate] | –
810 | 247 | CCOC(=O)c1cc(Cl)cc(NC(=O)c2sc(Cl)cc2S(=O)(=O)N(C)c2ccc(OCC)c(OCC)c2)c1 [CL2-187, Ethyl 3-chloro-5-(5-chloro-3-(N-(3,4-diethoxyphenyl)-N-methylsulfamoyl)thiophene-2-carboxamido) benzoate] | –
1100 | 339 | CCOc1ccc(N(C)S(=O)(=O)c2cc(Cl)sc2C(=O)Nc2cc(Cl)cc(C(=O)OC)c2)cc1OC [CL3-10, Methyl 3-chloro-5-(5-chloro-3-(N-(4-ethoxy-3-methoxyphenyl)-N-methylsulfamoyl)thiophene-2-carboxamido)benzoate] | –
4800 | 12600 | CCOc1ccc(N(C)S(=O)(=O)c2cc(Cl)sc2C(=O)Nc2cccc(S(C)(=O)=O)c2)cc1OCC [CL2-63, 5-Chloro-3-(N-(3,4-diethoxyphenyl)-N-methylsulfamoyl)-N-(3-(methylsulfonyl)phenyl)thiophene-2-carboxamide] | –
3500 | 2360 | CCCOc1ccc(N(C)S(=O)(=O)c2ccsc2C(=O)Nc2cccc(C(=O)OCC)c2)cc1 [CL2-16, Ethyl 3-(3-(N-methyl-N-(4-propoxyphenyl)sulfamoyl)thiophene-2-carboxamido) benzoate] | –
5000 | 4990 | CCOC(=O)c1cccc(NC(=O)c2sc(Cl)cc2S(=O)(=O)N(C)c2ccc(N(C)C)cc2)c1 [CL2-181, Ethyl 3-(5-chloro-3-(N-(4-(dimethylamino)phenyl)-N-methylsulfamoyl)thiophene-2-carboxamido)benzoate] | –
> 5000 | 5390 | CCOC(=O)c1cccc(NC(=O)c2sc(Cl)cc2S(=O)(=O)N(C)c2ccc(OCC)nc2)c1 [CL2-159, Ethyl 3-(5-chloro-3-(N-(6-ethoxypyxidin-3-yl)-N-methylsulfamoyl)thiophene-2-carboxamido)benzoate] | –
420 | 138 | CCOc1ccc(N(C)S(=O)(=O)c2cc(Cl)sc2C(=O)Nc2cc(Cl)cc(C(=O)OCCOCCOC)c2)cc1OC [CL3-12, 2-(2-Methoxyethoxy) ethyl 3-chloro-5-(5-chloro-3-(N-(4-ethoxy-3-methoxyphenyl)-N-methylsulfamoyl)thiophene-2-carboxamido)benzoate] | –
